Active and inactive are the calls of the source.
What was measured:
[1] = target: Luciferin 4-monooxygenase (Photinus pyralis, UniProt P08659); assay: Counter Screen for Luciferase-based Assay Positives. [Related pubchem assays: 620, 618, 411 ]
HT-1080 = assay: cytotoxicity in HT1080 fibrosarcoma cells, cell-based, fluorescence readout (AID 620); assay type: functional; details: Homo sapiens
[2] = target: T1, Neuropeptides B/W receptor type 1 (Homo sapiens, UniProt P48145); assay: Fluorescence-based dose response cell-based high throughput screening assay to identify antagonists of the G-protein coupled receptor 7 (GPR7). [Related pubchem assays: 1952 (Screening assay (GPR7 antagonists).), 1880 (Summary AID.)]; assay type: functional
T1 sequence (P48145 whole entry): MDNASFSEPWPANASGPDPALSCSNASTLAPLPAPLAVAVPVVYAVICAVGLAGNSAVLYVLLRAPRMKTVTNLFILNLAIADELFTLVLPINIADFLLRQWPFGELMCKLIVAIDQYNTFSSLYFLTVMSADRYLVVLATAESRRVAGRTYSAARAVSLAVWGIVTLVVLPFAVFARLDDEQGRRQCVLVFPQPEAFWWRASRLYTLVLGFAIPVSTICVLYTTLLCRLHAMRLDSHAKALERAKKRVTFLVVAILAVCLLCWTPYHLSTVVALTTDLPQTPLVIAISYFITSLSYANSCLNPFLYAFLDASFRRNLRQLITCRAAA

[3] = target: Melanin-concentrating hormone receptor 1 (Homo sapiens, UniProt Q99705); assay: Fluorescence-based counterscreen for antagonists of the G-protein coupled receptor 7 (GPR7): cell-based high throughput dose response assay to identify antagonists of the melanin-concentrating hormone receptor 1 (MCHR1).; assay type: functional
[4] = insulin promoter down-regulators in MIN6 cells, imaging, high-content screening, mouse beta cells (AID 1628); assay type: functional
BJ [5] = assay: cytotoxicity toward BJ-TERT fibroblasts, dose response, cell-based, RAS-independent, luminescence (AID 1933); assay type: functional; details: Homo sapiens
[6] = cytotoxicity in MIN6 insulinoma cells, dose response, cytotoxicity control, cell-based, mouse insulinoma (AID 2122); assay type: functional;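 note: confirmatory high-throughput counterscreen run to flag cytotoxic compounds; mouse MIN-6 beta cells carrying an insulin promoter eGFP reporter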
BJ [7] = assay: cells; assay type: functional, cell-based; details: Homo sapiens
[8] = Luminescence-based dose response cell-based high throughput screening assay for cytotoxic compounds using the IEC-6 intestinal epithelial cell line. [Related pubchem assays: 1858 (Summary AID.), 1825 (Counterscreen.), 1907 (Confirmation screen.)]; assay type: functional
BJ [9] = assay: cytotoxicity toward BJ-TERT-LT-ST fibroblasts, dose response, cell-based, RAS-independent, luminescence (AID 1935); assay type: functional; details: Homo sapiens;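 note: BJ fibroblasts immortalized with TERT plus LT and ST oncogenes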
[10] = cytotoxicity toward DRD oncogenic fibroblasts, dose response, cell-based, non-viral oncogenic, luminescence (AID 1934); assay type: functional; details: Homo sapiens
BJ [11] = assay: cytotoxicity toward Ras-transformed BJeLR fibroblasts, dose response, cell-based, alamar blue fluorescence, cherrypicked samples (AID 2631); assay type: functional; details: Homo sapiens;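 note: confirmatory dose-response assay in RAS-dependent BJ fibroblasts engineered with TERT, LT and ST, with cytotoxicity read by fluorescence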
INS1 = assay: beta cell apoptosis inhibitors, cytokine rescue, dose response, luminescence, retest (AID 449756); assay type: functional, cell-based; details: Rattus norvegicus;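 note: cell death triggered by IL-1 beta plus TNF-alpha plus IFN-gamma mixture; protective hits raise ATP signal compared with cytokine alone wells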
Paired box protein Pax-8 = Paired box protein Pax-8 (Homo sapiens, UniProt Q06710); assay: inhibitors of PAX8-driven TPO luciferase reporter, dose response, RMG-I cells, cherry-pick (AID 687027); assay type: functional, cell-based;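 note: luciferase reporter driven by Pax8 target thyroperoxidase promoter measured by SteadyGlo luminescence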
[12] = M. tuberculosis growth inhibition, HTS (AID 449762); assay type: functional
Prothrombin = Prothrombin (Homo sapiens, UniProt P00734); assay: Thrombin 1536 HTS Dose Response Confirmation. [Related pubchem assays: 1046 (Thrombin 1536 HTS; hits were confirmed in this assay)]; assay type: functional
Cytochrome P450 2C19 = Cytochrome P450 2C19 (Homo sapiens, UniProt P33261); assay: Cytochrome panel assay with activity outcomes. Panel member name: p450-cyp2c19 Compounds with AC50 equal or less than 10 uM are considered active; assay type: functional; details: read-out: AC50
[13] = target: T2, Replicative DNA helicase DnaB (Mycobacterium tuberculosis, UniProt P9WMR3); assay: DnaB intein splicing inhibitors, dose response, biochemical, cell-free fluorescence (AID 449749); assay type: functional
T2 sequence (P9WMR3 whole entry): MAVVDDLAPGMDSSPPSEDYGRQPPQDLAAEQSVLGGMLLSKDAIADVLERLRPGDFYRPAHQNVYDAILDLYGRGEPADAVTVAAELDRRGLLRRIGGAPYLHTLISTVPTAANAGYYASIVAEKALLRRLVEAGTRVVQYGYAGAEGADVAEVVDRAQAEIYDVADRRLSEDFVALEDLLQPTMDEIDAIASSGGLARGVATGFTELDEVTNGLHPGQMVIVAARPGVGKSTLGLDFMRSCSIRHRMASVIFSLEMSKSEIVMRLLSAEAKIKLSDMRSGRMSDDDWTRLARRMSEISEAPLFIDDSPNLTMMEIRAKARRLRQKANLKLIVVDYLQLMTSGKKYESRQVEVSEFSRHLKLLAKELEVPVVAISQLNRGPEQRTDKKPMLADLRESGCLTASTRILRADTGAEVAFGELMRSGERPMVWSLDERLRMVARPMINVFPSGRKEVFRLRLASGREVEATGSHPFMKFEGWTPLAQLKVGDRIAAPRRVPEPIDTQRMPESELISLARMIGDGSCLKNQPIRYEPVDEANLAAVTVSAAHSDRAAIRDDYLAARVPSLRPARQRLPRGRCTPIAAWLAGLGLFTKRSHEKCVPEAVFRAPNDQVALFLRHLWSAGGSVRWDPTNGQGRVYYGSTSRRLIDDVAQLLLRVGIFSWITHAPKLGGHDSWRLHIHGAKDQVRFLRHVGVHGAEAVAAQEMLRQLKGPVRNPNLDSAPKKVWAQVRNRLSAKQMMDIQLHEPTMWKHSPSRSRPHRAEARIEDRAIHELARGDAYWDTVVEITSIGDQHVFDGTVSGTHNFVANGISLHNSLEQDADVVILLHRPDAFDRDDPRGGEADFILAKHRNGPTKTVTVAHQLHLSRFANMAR

Protein RecA = target: T3, Protein RecA (Mycobacterium tuberculosis, UniProt P9WHJ3); assay: Fluorescence Cell-Free Homogeneous Dose Retest to Identify Inhibitors of RecA-Intein Splicing Activity. [Related pubchem assays (depositor defined):AID2097, AID2223, AID489010, AID492950]; assay type: functional
T3 sequence (P9WHJ3 whole entry): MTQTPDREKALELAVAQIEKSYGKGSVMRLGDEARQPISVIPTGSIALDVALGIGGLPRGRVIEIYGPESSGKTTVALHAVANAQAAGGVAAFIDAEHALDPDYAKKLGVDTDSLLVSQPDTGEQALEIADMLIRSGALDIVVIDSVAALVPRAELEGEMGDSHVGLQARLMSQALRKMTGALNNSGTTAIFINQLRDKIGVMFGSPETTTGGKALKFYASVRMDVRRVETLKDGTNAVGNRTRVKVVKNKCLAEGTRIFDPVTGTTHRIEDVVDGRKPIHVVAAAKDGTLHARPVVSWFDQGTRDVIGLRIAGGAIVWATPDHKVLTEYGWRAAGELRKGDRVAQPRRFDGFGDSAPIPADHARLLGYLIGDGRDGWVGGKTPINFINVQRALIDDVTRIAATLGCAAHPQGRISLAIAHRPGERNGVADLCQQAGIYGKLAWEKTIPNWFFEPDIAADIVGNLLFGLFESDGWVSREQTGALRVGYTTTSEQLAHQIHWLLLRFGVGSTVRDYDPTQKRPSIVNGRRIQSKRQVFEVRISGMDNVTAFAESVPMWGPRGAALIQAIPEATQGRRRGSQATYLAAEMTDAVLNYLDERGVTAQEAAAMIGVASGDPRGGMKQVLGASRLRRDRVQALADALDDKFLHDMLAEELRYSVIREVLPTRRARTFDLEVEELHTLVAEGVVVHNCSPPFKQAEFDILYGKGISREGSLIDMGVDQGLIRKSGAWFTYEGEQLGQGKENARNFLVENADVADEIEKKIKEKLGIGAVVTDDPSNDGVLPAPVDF

Cytochrome P450 2C9 = Cytochrome P450 2C9 (Homo sapiens, UniProt P11712)
Vero = assay: cytotoxicity of synthesized analogs in Vero cells, SAR follow-up, cytotoxicity control for West Nile virus antiviral project, cell-based, set II (AID 2402); assay type: functional; details: Chlorocebus sabaeus
[14] = tested on: Streptococcus sp. 'group A'; assay: growth inhibition of control SK(-) GAS strain, dose response, counter-screen for streptokinase expression inhibitor project, luminescence, kanamycin, BacTiterGlo, confirmation (AID 1900); assay type: functional, organism-based
Streptokinase A = target: T4, Streptokinase A (Streptococcus pyogenes serotype M1, UniProt P10520); assay: S. pyogenes streptokinase expression inhibitors, potency, dose response, plasminogen activation absorbance, OD405 (AID 1914); assay type: functional, Streptococcus pyogenes M1 GAS;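 note: secreted streptokinase activity via plasminogen activation per viability signal from cell pellet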
T4 sequence (P10520 whole entry): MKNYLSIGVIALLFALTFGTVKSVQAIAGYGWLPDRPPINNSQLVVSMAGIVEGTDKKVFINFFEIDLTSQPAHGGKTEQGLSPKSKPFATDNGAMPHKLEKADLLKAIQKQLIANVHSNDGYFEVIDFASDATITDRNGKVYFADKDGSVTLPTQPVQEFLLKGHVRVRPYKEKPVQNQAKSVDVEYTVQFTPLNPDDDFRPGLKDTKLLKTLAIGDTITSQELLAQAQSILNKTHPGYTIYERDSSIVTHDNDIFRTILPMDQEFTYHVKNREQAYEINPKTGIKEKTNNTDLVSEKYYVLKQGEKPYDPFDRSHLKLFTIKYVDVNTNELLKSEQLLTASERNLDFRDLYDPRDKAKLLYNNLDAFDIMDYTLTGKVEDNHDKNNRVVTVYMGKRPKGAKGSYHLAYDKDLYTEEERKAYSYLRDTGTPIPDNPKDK

[15] = inhibitors of Bluetongue virus cytopathic effect, confirmation, arbovirus, BSR cells (AID 1250); assay type: functional;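 note: protection from viral cytopathic effect measured as cell viability by ATP luminescence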
Streptococcus = assay: Group A Streptococcus viability loss, dose response, counter-screen for streptokinase expression inhibitor project, luminescence, BacTiterGlo (AID 1915); assay type: functional, organism-based;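 note: potency for reduction of bacterial viability or growth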
[16] = Luminescence Cell-Based Dose Retest to Confirm Inhibitors of Cancer Stem Cells. [Related pubchem assays (depositor defined):AID2717, AID2721]; assay type: functional; details: Homo sapiens

Cytochrome P450 2C9, sequence (P11712 whole entry): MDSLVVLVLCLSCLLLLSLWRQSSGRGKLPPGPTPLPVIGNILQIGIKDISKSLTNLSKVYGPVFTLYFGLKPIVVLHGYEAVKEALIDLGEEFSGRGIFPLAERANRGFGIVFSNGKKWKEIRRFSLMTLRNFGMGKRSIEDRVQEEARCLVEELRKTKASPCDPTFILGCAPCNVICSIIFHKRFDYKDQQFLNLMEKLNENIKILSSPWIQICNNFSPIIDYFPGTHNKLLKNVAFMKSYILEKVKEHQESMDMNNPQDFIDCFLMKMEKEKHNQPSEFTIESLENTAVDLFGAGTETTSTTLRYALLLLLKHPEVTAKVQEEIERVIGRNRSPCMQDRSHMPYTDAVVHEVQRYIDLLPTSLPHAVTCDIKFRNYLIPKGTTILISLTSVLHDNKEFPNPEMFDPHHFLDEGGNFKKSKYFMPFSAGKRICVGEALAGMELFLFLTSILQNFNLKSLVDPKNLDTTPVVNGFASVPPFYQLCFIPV
Cytochrome P450 2C19, sequence (P33261 whole entry): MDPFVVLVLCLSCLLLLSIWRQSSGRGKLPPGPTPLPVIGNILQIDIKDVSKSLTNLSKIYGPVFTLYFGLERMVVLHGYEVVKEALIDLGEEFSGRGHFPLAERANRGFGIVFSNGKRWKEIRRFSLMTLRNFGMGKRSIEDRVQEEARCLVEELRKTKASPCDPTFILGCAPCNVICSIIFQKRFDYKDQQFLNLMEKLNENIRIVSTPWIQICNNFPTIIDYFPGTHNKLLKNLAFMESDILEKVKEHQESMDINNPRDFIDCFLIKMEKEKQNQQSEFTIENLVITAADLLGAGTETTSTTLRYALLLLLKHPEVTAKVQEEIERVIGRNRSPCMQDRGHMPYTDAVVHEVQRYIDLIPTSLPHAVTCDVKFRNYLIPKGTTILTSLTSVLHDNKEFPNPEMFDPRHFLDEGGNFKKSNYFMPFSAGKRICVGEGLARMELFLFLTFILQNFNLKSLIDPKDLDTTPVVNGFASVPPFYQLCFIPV
Luciferin 4-monooxygenase, sequence (P08659 whole entry): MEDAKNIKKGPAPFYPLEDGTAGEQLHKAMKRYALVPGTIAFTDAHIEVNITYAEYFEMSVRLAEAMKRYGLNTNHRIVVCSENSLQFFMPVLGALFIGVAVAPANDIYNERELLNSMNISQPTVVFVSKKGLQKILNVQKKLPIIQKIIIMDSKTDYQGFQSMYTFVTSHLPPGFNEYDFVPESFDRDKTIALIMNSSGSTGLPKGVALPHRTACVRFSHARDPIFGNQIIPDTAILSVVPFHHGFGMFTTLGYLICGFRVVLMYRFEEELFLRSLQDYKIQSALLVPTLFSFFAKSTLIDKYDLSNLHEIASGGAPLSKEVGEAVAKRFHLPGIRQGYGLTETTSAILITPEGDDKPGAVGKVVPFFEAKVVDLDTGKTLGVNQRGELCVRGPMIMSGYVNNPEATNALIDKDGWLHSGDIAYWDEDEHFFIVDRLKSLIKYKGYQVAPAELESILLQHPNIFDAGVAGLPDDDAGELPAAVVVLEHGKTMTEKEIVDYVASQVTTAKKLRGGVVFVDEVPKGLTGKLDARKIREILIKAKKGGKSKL
Melanin-concentrating hormone receptor 1, sequence (Q99705 whole entry): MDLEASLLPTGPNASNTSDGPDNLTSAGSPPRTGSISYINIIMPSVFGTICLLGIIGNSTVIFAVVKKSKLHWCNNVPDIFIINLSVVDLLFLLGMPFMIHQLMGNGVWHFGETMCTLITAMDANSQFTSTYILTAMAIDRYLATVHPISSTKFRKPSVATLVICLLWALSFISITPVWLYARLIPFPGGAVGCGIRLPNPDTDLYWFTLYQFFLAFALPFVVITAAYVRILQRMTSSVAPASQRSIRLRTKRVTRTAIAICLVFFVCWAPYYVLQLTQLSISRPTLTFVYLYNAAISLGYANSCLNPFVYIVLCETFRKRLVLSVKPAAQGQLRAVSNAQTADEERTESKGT
Paired box protein Pax-8, sequence (Q06710 whole entry): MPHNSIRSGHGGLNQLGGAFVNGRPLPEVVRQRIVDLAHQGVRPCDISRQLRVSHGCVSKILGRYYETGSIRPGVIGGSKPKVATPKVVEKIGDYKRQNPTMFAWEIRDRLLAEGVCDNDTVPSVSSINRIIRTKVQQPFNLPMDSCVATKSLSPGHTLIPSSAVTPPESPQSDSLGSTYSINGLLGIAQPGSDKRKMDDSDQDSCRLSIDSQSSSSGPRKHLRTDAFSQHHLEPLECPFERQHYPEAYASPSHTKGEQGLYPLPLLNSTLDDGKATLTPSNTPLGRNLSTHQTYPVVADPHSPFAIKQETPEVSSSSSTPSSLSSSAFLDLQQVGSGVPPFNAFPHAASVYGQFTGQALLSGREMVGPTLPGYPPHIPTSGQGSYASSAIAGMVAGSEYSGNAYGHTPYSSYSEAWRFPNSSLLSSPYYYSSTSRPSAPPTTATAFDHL

## Cc1ccc(-c2nc3cc(N)ccc3o2)cc1
[1]
  EC50: 4.68 µM (active)
HT-1080
  EC50: > 50 µM (not active)

## CCC(C)(C(=O)NC1CCCC1)N(Cc1ccco1)C(=O)c1ccc2c(c1)OCO2 (stereo unspecified)
[2]
  IC50: > 43.8 µM (not active)
[3]
  IC50: > 43.8 µM (not active)

## CCOc1ccc(C(=O)c2cc([N+](=O)[O-])ccc2N2CCOCC2)cc1
[4]
  IC50: 0.263 µM (active)
BJ [5]
  EC50: 0.406 µM (active)
[6]
  IC50: < 0.25 µM (active)
BJ [7]
  EC50: 0.632 µM (active)
[8]
  IC50: 0.0558 µM (active)
BJ [9]
  EC50: 0.401 µM (inconclusive)
[10]
  EC50: 0.358 µM (active)
BJ [11]
  EC50: < 0.104 µM (active)
INS1
  AC50: 0.775 µM (active)
Paired box protein Pax-8
  AC50: < 0.26 µM (active)

## CCOC(=O)c1ccc(NC(=O)CSc2ccc(-c3cccnc3)nn2)cc1
[12]
  IC50: > 100 µM (active)

## CCOC(=O)CSc1n[nH]c(NC(=O)c2cccc(C(F)(F)F)c2)n1
Prothrombin
  IC50: 0.515 µM (active)
Cytochrome P450 2C19
  AC50: 2.51 µM (inconclusive)
[13]
  AC50: 11.3 µM (active)
Protein RecA
  EC50: 12.4 µM (active)
Cytochrome P450 2C9
  AC50: 5.01 µM (inconclusive)

## CC1CC(C)CN(C(=O)CSc2nc3ccccc3c(=O)n2-c2ccc(F)cc2)C1 (stereo unspecified)
Vero
  CC50: > 100 µM (active)

## Cc1ccc(-c2csc3ncnc(NS(=O)(=O)c4ccc(Cl)cc4)c23)cc1
[14]
  EC50: 4.44 µM (active)
Streptokinase A
  EC50: 16.2 µM (active)
[15]
  IC50: 35.5 µM (active)
Streptococcus
  EC50: 66.7 µM (active)
[16]
  AC50: 9.42 µM (active)
